The structures appear in SMILES notation.

A short description of data set [1]: Biological distribution in bodies of normal mice. The conditions noted are these: caudal vein injection. The format is in vivo, mice (ICR). From the text: Through in-vivo distribution experiments, pharmacokinetic features, especially initial bran intake and brain removal situations of ^18F or ^125I labeled compounds in the bodies of mice are studied. […] Data are expressed in radioactive percentage dosage per organ (% ID/organ) and radioactive percentage dosage per gram of organ (% ID/g).

The nature of data set [2]: logD of labeled ligands. The format is physicochemical.

On to `FCCOc1ccc(COc2ccc([125I])cc2)cc1` [[^125I]35a], for which the Blood in data set [1] (2 min) was 4.96 ± 0.35 % ID/g; in data set [1] (10 min) it was 3.88 ± 0.79 % ID/g; in data set [1] (30 min), 3.89 ± 0.53 % ID/g; in data set [1] (60 min) it was 3.01 ± 1.07 % ID/g. Besides, the Brain is 5.27 ± 0.98 % ID/g in data set [1] (2 min), 2.28 ± 0.27 % ID/g in data set [1] (10 min), 0.81 ± 0.06 % ID/g in data set [1] (30 min) and 0.37 ± 0.06 % ID/g in data set [1] (60 min). Besides, the Thyroid in data set [1] (2 min) came to 0.13 ± 0.02 % ID/organ; in data set [1] (10 min), 0.13 ± 0.01 % ID/organ; in data set [1] (30 min), 0.19 ± 0.04 % ID/organ; in data set [1] (60 min), 0.34 ± 0.10 % ID/organ. Further, in data set [2], the logD entry is “[^125I]35a (logD = 2.50 ± 0.23)”.
Turning to `COc1ccc(COc2ccc(OCCOCCOCC[18F])cc2)cc1` [[^18F] 53b], the Blood was 3.95 ± 0.34 % ID/g in data set [1] (2 min), 4.14 ± 0.91 % ID/g in data set [1] (10 min), 3.40 ± 0.25 % ID/g in data set [1] (30 min) and 2.36 ± 0.66 % ID/g in data set [1] (60 min). In addition, the Bone was 1.36 ± 0.35 % ID/organ in data set [1] (2 min), 1.22 ± 0.42 % ID/organ in data set [1] (10 min), 1.39 ± 0.54 % ID/organ in data set [1] (30 min) and 1.52 ± 0.27 % ID/organ in data set [1] (60 min). Further, the Brain worked out at 9.71 ± 1.31 % ID/g in data set [1] (2 min), 2.52 ± 0.20 % ID/g in data set [1] (10 min), 1.39 ± 0.10 % ID/g in data set [1] (30 min) and 1.07 ± 0.10 % ID/g in data set [1] (60 min). In addition, in data set [2], the logD entry was “[^18F] 53b (logD = 3.04 ± 0.04)”.
`FCCOc1ccc(OCc2ccc([125I])cc2)cc1` [[^125I]31a]: the values for the Blood in data set [1] (2 min), in data set [1] (10 min) and in data set [1] (30 min) were 5.03 ± 0.20 % ID/g, 3.03 ± 0.48 % ID/g and 2.17 ± 0.31 % ID/g, respectively. Besides, the Brain is on record as 7.04 ± 0.89 % ID/g in data set [1] (2 min), 2.73 ± 0.25 % ID/g in data set [1] (10 min), 1.05 ± 0.22 % ID/g in data set [1] (30 min) and 0.55 ± 0.11 % ID/g in data set [1] (60 min). In addition, the Thyroid in data set [1] (2 min) is on record as 0.12 ± 0.02 % ID/organ; in data set [1] (10 min), 0.09 ± 0.02 % ID/organ; in data set [1] (30 min) it was 0.12 ± 0.01 % ID/organ; in data set [1] (60 min), 0.16 ± 0.03 % ID/organ. Besides, the logD result in data set [2] was “[^125I]31a (logD = 3.96 ± 0.22)”.
For `COc1ccc(OCc2ccc(OCC[18F])cc2)cc1` [[^18F]44a], the Blood in data set [1] (2 min) turned out to be 3.90 ± 0.25 % ID/g; in data set [1] (10 min), 3.86 ± 0.24 % ID/g; in data set [1] (30 min) it was 4.28 ± 0.23 % ID/g; in data set [1] (60 min), 3.86 ± 0.39 % ID/g. For the same compound, the Bone in data set [1] (2 min) stood at 1.50 ± 0.44 % ID/organ; in data set [1] (10 min), 1.04 ± 0.25 % ID/organ; in data set [1] (30 min) it was 1.43 ± 0.44 % ID/organ; in data set [1] (60 min), 4.05 ± 0.62 % ID/organ. Besides, the Brain in data set [1] (2 min) is listed as 7.54 ± 0.39 % ID/g; in data set [1] (10 min) it was 3.32 ± 0.38 % ID/g; in data set [1] (30 min) it was 2.77 ± 0.22 % ID/g; in data set [1] (60 min) it was 2.33 ± 0.30 % ID/g. The logD entry in data set [2] was “[^18F]44a (logD = 3.05 ± 0.08)”.
For the compound `COc1ccc(COc2ccc([125I])cc2)cc1` [[^125I]24], the Blood in data set [1] (2 min) is listed as 5.13 ± 0.62 % ID/g; in data set [1] (10 min) it was 4.26 ± 0.38 % ID/g; in data set [1] (30 min) it was 3.31 ± 0.79 % ID/g; in data set [1] (60 min), 2.60 ± 1.33 % ID/g. Also, the Brain in data set [1] (2 min) amounted to 4.29 ± 1.06 % ID/g; in data set [1] (10 min), 2.11 ± 0.38 % ID/g; in data set [1] (30 min), 0.73 ± 0.17 % ID/g; in data set [1] (60 min), 0.32 ± 0.09 % ID/g. Moreover, the Thyroid in data set [1] (10 min) is reported as 0.07 ± 0.03 % ID/organ; in data set [1] (30 min), 0.17 ± 0.03 % ID/organ; in data set [1] (60 min) it was 0.19 ± 0.05 % ID/organ. Further, in data set [2], the logD result was “[^125I]24 (logD = 4.16 ± 0.29)”.

Source of the values: patent US20170037008A1, “PHENYL BENZYL ETHER DERIVATIVE AND PREPARATION METHOD AND APPLICATION THEREOF” (BEIJING ZHIBO BIO-MEDICAL TECHNOLOGY CO., LTD, priority 2013, published 2017).
